From patent publication US11225505B2, “Antimicrobial polymyxin derivative compounds” (MONASH UNIVERSITY, priority 2015, dated 2022)
Values after ≈ are worked out from the molar mass of the structure shown. Where a SMILES comes first, the peptide text is derived from it. Bridges are numbered along the chain shown (N, C = ends). [ ]: non-standard residue; d: D form. The star is where a group is joined. Benzothiazole(2-CH2CH2CO) = O=C(CCc1nc2ccccc2s1)*; Quinoline3carbonyl = O=C(c1cnc2ccccc2c1)*; X19 = O=C(c1ncc(C(F)(F)F)cc1Cl)*; X44 = O=C(c1cc(-c2ccccc2)no1)*; X42 = O=C(c1nc2ccccc2[nH]1)*; X17 = O=C(c1ncc(Br)cc1Cl)*; X50 = O=C(c1sc(Br)cc1Br)*; Dab = NCC[C@H](N)C(=O)O; X70 = O=C(c1csc(Br)c1)*; Abu = CC[C@H](N)C(=O)O; Dap = NC[C@H](N)C(=O)O; X8 = O=C(c1ccnc(F)c1)*

Experiments:
Type in all cases: cell-based
[1] = system: Acinetobacter baumannii FADDI-AB030; test: microbe, parasite or virus in culture; details: FADDI-AB030
In short: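 Lipopeptide TFA salts tested against the multidrug-resistant clinical isolate by CLSI (M100-S24) broth microdilution in cation-adjusted Mueller-Hinton broth, with polymyxin B sulphate as control; MIC read.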

[2] = system: Klebsiella pneumoniae FADDI-KP022; details: FADDI-KP022
In short: (§1)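 Susceptibility of polymyxin-susceptible Gram-negative strains, including multidrug-resistant clinical isolates PA022 and AB034, was tested by broth microdilution. Cation-adjusted Mueller-Hinton broth and the CLSI M100-S24 method were used.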

[3] = system: Pseudomonas aeruginosa ATCC 27853; details: ATCC 27853
In short: as §1

[4] = system: Klebsiella pneumoniae Kp BM1; details: Kp BM1
In short: (§2)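 MICs were determined by broth microdilution in cation-adjusted Mueller-Hinton broth following the CLSI M100-S24 protocol. Lipopeptides were tested as trifluoroacetic acid salts against polymyxin-susceptible Gram-negative strains, with polymyxin B sulphate as control. FADDI-PA022 and FADDI-AB034 are multidrug-resistant clinical isolates.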

[5] = system: Acinetobacter baumannii FADDI-AB034; details: FADDI-AB034
In short: as §1

[6] = system: Pseudomonas aeruginosa FADDI-PA022; details: FADDI-PA022
In short: as §1

[7] = system: Enterobacter cloacae FADDI-EC003; details: FADDI-EC003
In short: as §1

[8] = system: Enterobacter cloacae FADDI-EC006; details: FADDI-EC006
In short: as §1

[9] = system: Klebsiella pneumoniae FADDI-KP032; details: FADDI-KP032
In short: as §1

[10] = system: Acinetobacter baumannii ATCC 17978; details: ATCC 17978
In short: as §1

[11] = system: Pseudomonas aeruginosa FADDI-PA01; details: FADDI-
In short: as §1

[12] = system: Enterobacter cloacae FADDI-EC001; details: FADDI-EC001
In short: as §2

[13] = system: Pseudomonas aeruginosa FADDI-PA038; details: FADDI-PA038
In short: as §1

Compound | Minimum inhibitory concentration [1] [µg/mL] | Minimum inhibitory concentration [2] [µg/mL] | Minimum inhibitory concentration [3] [µg/mL] | Minimum inhibitory concentration [4] [µg/mL] | Minimum inhibitory concentration [5] [µg/mL] | Minimum inhibitory concentration [6] [µg/mL] | Minimum inhibitory concentration [7] [µg/mL] | Minimum inhibitory concentration [8] [µg/mL] | Minimum inhibitory concentration [9] [µg/mL] | Minimum inhibitory concentration [10] [µg/mL] | Minimum inhibitory concentration [11] [µg/mL] | Minimum inhibitory concentration [12] [µg/mL] | Minimum inhibitory concentration [13] [µg/mL]
CC[C@@H]1NC(=O)[C@@H](CC(C)C)NC(=O)[C@H](CCN)NC(=O)[C@@H](NC(=O)[C@H](CN)NC(=O)[C@@H](NC(=O)[C@H](CCN)NC(=O)CCc2nc3ccccc3s2)[C@@H](C)O)CCNC(=O)[C@H]([C@@H](C)O)NC(=O)[C@H](CCN)NC(=O)[C@H](CCN)NC1=O [Compound 72] ({Benzothiazole(2-CH2CH2CO)}-[Dab]T[Dap][Dab][Dab][dL][Abu][Dab][Dab]T; lactam 4-C) | 0.5 (≈ 0.425 µM) | <0.125 | 0.5 (≈ 0.425 µM) | <0.125 | 0.5 (≈ 0.425 µM) | 0.5 (≈ 0.425 µM) | <0.125 | <0.125 | <0.125 | 0.5 (≈ 0.425 µM) | 0.5 (≈ 0.425 µM) | <0.125 | 0.5 (≈ 0.425 µM)
CC[C@@H]1NC(=O)[C@@H](CC(C)C)NC(=O)[C@H](CCN)NC(=O)[C@@H](NC(=O)[C@H](CN)NC(=O)[C@@H](NC(=O)[C@H](CCN)NC(=O)c2ncc(C(F)(F)F)cc2Cl)[C@@H](C)O)CCNC(=O)[C@H]([C@@H](C)O)NC(=O)[C@H](CCN)NC(=O)[C@H](CCN)NC1=O [Compound 35] (X19-[Dab]T[Dap][Dab][Dab][dL][Abu][Dab][Dab]T; lactam 4-C) | <0.125 | <0.125 | 0.25 (≈ 0.209 µM) | <0.125 | 0.25 (≈ 0.209 µM) | 0.5 (≈ 0.419 µM) | <0.125 | <0.125 | <0.125 | 0.25 (≈ 0.209 µM) | 0.25 (≈ 0.209 µM) | <0.125 | 0.5 (≈ 0.419 µM)
CC[C@@H]1NC(=O)[C@@H](CC(C)C)NC(=O)[C@H](CCN)NC(=O)[C@@H](NC(=O)[C@H](CN)NC(=O)[C@@H](NC(=O)[C@H](CCN)NC(=O)c2csc(Br)c2)[C@@H](C)O)CCNC(=O)[C@H]([C@@H](C)O)NC(=O)[C@H](CCN)NC(=O)[C@H](CCN)NC1=O [Compound 101] (X70-[Dab]T[Dap][Dab][Dab][dL][Abu][Dab][Dab]T; lactam 4-C) | 0.5 (≈ 0.425 µM) | 1 (≈ 0.85 µM) | 0.25 (≈ 0.213 µM) | 0.5 (≈ 0.425 µM) | 0.5 (≈ 0.425 µM) | 0.25 (≈ 0.213 µM) | 0.5 (≈ 0.425 µM) | 0.5 (≈ 0.425 µM) | 0.5 (≈ 0.425 µM) | 0.5 (≈ 0.425 µM) | 0.25 (≈ 0.213 µM) | 0.5 (≈ 0.425 µM) | 0.5 (≈ 0.425 µM)
CC[C@@H]1NC(=O)[C@@H](CC(C)C)NC(=O)[C@H](CCN)NC(=O)[C@@H](NC(=O)[C@H](CN)NC(=O)[C@@H](NC(=O)[C@H](CCN)NC(=O)c2ccnc(F)c2)[C@@H](C)O)CCNC(=O)[C@H]([C@@H](C)O)NC(=O)[C@H](CCN)NC(=O)[C@H](CCN)NC1=O [Compound 31] (X8-[Dab]T[Dap][Dab][Dab][dL][Abu][Dab][Dab]T; lactam 4-C) | 2 (≈ 1.8 µM) | <0.125 | 0.25 (≈ 0.225 µM) | 1 (≈ 0.901 µM) | 2 (≈ 1.8 µM) | 0.25 (≈ 0.225 µM) | 0.5 (≈ 0.45 µM) | 1 (≈ 0.901 µM) | 1 (≈ 0.901 µM) | 2 (≈ 1.8 µM) | 0.25 (≈ 0.225 µM) | 0.5 (≈ 0.45 µM) | 0.5 (≈ 0.45 µM)
CC[C@@H]1NC(=O)[C@@H](CC(C)C)NC(=O)[C@H](CCN)NC(=O)[C@@H](NC(=O)[C@H](CN)NC(=O)[C@@H](NC(=O)[C@H](CCN)NC(=O)c2cnc3ccccc3c2)[C@@H](C)O)CCNC(=O)[C@H]([C@@H](C)O)NC(=O)[C@H](CCN)NC(=O)[C@H](CCN)NC1=O [Compound 52] (Quinoline3carbonyl-[Dab]T[Dap][Dab][Dab][dL][Abu][Dab][Dab]T; lactam 4-C) | 0.5 (≈ 0.438 µM) | <0.125 | 0.5 (≈ 0.438 µM) | 0.5 (≈ 0.438 µM) | 1 (≈ 0.875 µM) | 0.5 (≈ 0.438 µM) | 0.5 (≈ 0.438 µM) | 1 (≈ 0.875 µM) | <0.125 | 2 (≈ 1.75 µM) | 0.5 (≈ 0.438 µM) | <0.125 | 0.25 (≈ 0.219 µM)
CC[C@@H]1NC(=O)[C@@H](CC(C)C)NC(=O)[C@H](CCN)NC(=O)[C@@H](NC(=O)[C@H](CN)NC(=O)[C@@H](NC(=O)[C@H](CCN)NC(=O)c2sc(Br)cc2Br)[C@@H](C)O)CCNC(=O)[C@H]([C@@H](C)O)NC(=O)[C@H](CCN)NC(=O)[C@H](CCN)NC1=O [Compound 85] (X50-[Dab]T[Dap][Dab][Dab][dL][Abu][Dab][Dab]T; lactam 4-C) | <0.125 | <0.125 | 0.25 (≈ 0.199 µM) | 0.25 (≈ 0.199 µM) | 0.25 (≈ 0.199 µM) | 0.25 (≈ 0.199 µM) | 0.25 (≈ 0.199 µM) | <0.125 | <0.125 | <0.125 | 0.25 (≈ 0.199 µM) | 0.25 (≈ 0.199 µM) | 0.5 (≈ 0.398 µM)
CC[C@@H]1NC(=O)[C@@H](CC(C)C)NC(=O)[C@H](CCN)NC(=O)[C@@H](NC(=O)[C@H](CN)NC(=O)[C@@H](NC(=O)[C@H](CCN)NC(=O)c2nc3ccccc3[nH]2)[C@@H](C)O)CCNC(=O)[C@H]([C@@H](C)O)NC(=O)[C@H](CCN)NC(=O)[C@H](CCN)NC1=O [Compound 47] (X42-[Dab]T[Dap][Dab][Dab][dL][Abu][Dab][Dab]T; lactam 4-C) | 0.25 (≈ 0.221 µM) | <0.125 | 0.5 (≈ 0.442 µM) | 0.25 (≈ 0.221 µM) | 1 (≈ 0.884 µM) | 0.25 (≈ 0.221 µM) | <0.125 | 0.5 (≈ 0.442 µM) | 0.25 (≈ 0.221 µM) | 1 (≈ 0.884 µM) | <0.125 | <0.125 | 0.5 (≈ 0.442 µM)
CC[C@@H]1NC(=O)[C@@H](CC(C)C)NC(=O)[C@H](CCN)NC(=O)[C@@H](NC(=O)[C@H](CN)NC(=O)[C@@H](NC(=O)[C@H](CCN)NC(=O)c2cc(-c3ccccc3)no2)[C@@H](C)O)CCNC(=O)[C@H]([C@@H](C)O)NC(=O)[C@H](CCN)NC(=O)[C@H](CCN)NC1=O [Compound 87] (X44-[Dab]T[Dap][Dab][Dab][dL][Abu][Dab][Dab]T; lactam 4-C) | 0.5 (≈ 0.432 µM) | <0.125 | 1 (≈ 0.863 µM) | 0.5 (≈ 0.432 µM) | 0.5 (≈ 0.432 µM) | 0.5 (≈ 0.432 µM) | <0.125 | 0.25 (≈ 0.216 µM) | 0.25 (≈ 0.216 µM) | 0.5 (≈ 0.432 µM) | 0.5 (≈ 0.432 µM) | <0.125 | 1 (≈ 0.863 µM)
CC[C@@H]1NC(=O)[C@@H](CC(C)C)NC(=O)[C@H](CCN)NC(=O)[C@@H](NC(=O)[C@H](CN)NC(=O)[C@@H](NC(=O)[C@H](CCN)NC(=O)c2ncc(Br)cc2Cl)[C@@H](C)O)CCNC(=O)[C@H]([C@@H](C)O)NC(=O)[C@H](CCN)NC(=O)[C@H](CCN)NC1=O [Compound 33] (X17-[Dab]T[Dap][Dab][Dab][dL][Abu][Dab][Dab]T; lactam 4-C) | 0.5 (≈ 0.415 µM) | <0.125 | 0.25 (≈ 0.207 µM) | <0.125 | 0.5 (≈ 0.415 µM) | 0.25 (≈ 0.207 µM) | <0.125 | <0.125 | <0.125 | 0.5 (≈ 0.415 µM) | 0.25 (≈ 0.207 µM) | <0.125 | 0.5 (≈ 0.415 µM)
